# Reference: patent US7566736B2, “Substituted indoles, compositions containing them, method for the production thereof and their use” (Aventis Pharma S.A., priority 2004, dated 2009)
# Experiments:
# human KDR enzyme = biological target: T1, human KDR enzyme (Homo sapiens, UniProt P35968); test: phosphorylation of substrate by the KDR enzyme in vitro, scintillation technique; type: biochemical; details: read-out: KDR IC 50
# T1 construct: The cytoplasmic domain of the human KDR enzyme was cloned in the form of a GST fusion; GST; made in house; host or cells: SF21 insect cells (baculovirus, pFastBac)
# Protocol: The inhibitory effect of the compounds is determined in an assay for phosphorylation of substrate by the KDR enzyme in vitro using a scintillation technique (96-well plate, NEN).
# The cytoplasmic domain of the human KDR enzyme was cloned in the form of a GST fusion into the baculovirus expression vector pFastBac. The protein was expressed in SF21 cells and purified to approximately 60% homogeneity.
# The kinase activity of KDR is measured in 20 mM MOPS, 10 mM MgCl2, 10 mM MnCl2, 1 mM DTT, 2.5 mM EGTA, 10 mM β-glycerophosphate, pH=7.2, in the presence of 10 mM MgCl2, 100 μM Na3VO4, 1 mM NaF. 10 μl of the compound are added to 70 μl of kinase buffer containing 100 ng of KDR enzyme at 4° C. The reaction is initiated by adding 20 μl of solution containing 2 μg of substrate (SH2-SH3 fragment of PLCγ expressed in the form of a GST fusion protein), 2 μCi γ ^33P[ATP] and 2 μM cold ATP. After incubation at 37° C. for 1 hour, the reaction is stopped by adding 1 volume (100 μl) of 200 mM EDTA. The incubation buffer is removed and the wells are washed three times with 300 μl of PBS. The radioactivity is measured in each well using a Top Count NXT radioactivity counter (Packard).
# The background noise is determined by measuring the radioactivity in four different wells containing the radioactive ATP and the substrate alone.
# A control for total activity is measured in four different wells containing all the reactants (γ^33P-[ATP], KDR and PLCY substrate) but in the absence of compound.
# The inhibition of the KDR activity with the compound of the invention is expressed as percentage inhibition of the control activity determined in the absence of compound.
# The compound SU5614 (Calbiochem) (1 μM) is included in each plate as an inhibition control.
# human Tie2 = biological target: T2, human Tie2 (Homo sapiens, UniProt Q02763); test: phosphorylation of PLC by Tie2 (GST-Tie2), FlashPlate; type: biochemical; details: read-out: TIE2 IC 50
# T2 construct: corresponding to the intracellular domain amino acids 776-1124 was generated by PCR; made in house; host or cells: baculovirus expression vector pFastBacGT
# Protocol: The human Tie2 coding sequence corresponding to the intracellular domain amino acids 776-1124 was generated by PCR using the cDNA isolated from human placenta as a model. This sequence was introduced into a baculovirus expression vector pFastBacGT in the form of a GST fusion protein.
# The inhibitory effect of the molecules is determined in an assay for phosphorylation of PLC by Tie2 in the presence of GST-Tie2 purified to approximately 80% homogeneity. The substrate is made up of the SH2-SH3 fragments of PLC expressed in the form of a GST fusion protein.
# The kinase activity of Tie2 is measured in a 20 mM MOPS buffer, pH 7.2, containing 10 mM MgCl2, 10 mM MnCl2, 1 mM DTT and 10 mM of glycerophosphate. A reaction mixture made up to 70 μl of kinase buffer containing 100 ng of GST-Tie2 enzyme is deposited into each well of a 96-well FlashPlate kept on ice. 10 μl of the test molecule diluted in DMSO at a maximum concentration of 10% are then added. For a given concentration, each measurement is determined in quadruplicate. The reaction is initiated by adding 20 μl of solution containing 2 μg of GST-PLC, 2 μM of cold ATP and 1 μCi of ^33P [ATP]. After incubation at 37° C. for 1 hour, the reaction is stopped by adding 1 volume (100 μl) of 200 mM EDTA. After the incubation buffer has been removed, the wells are washed three times with 300 μl of PBS. The radioactivity is measured on a Wallac MicroBeta 1450.
# The inhibition of the Tie2 activity is calculated and expressed as percentage inhibition with respect to the control activity determined in the absence of compound.
# FAK = FAK (Homo sapiens, UniProt Q05397); test: FAK inhibition; type: biochemical
# FAK, sequence (Q05397 whole entry, species assumed): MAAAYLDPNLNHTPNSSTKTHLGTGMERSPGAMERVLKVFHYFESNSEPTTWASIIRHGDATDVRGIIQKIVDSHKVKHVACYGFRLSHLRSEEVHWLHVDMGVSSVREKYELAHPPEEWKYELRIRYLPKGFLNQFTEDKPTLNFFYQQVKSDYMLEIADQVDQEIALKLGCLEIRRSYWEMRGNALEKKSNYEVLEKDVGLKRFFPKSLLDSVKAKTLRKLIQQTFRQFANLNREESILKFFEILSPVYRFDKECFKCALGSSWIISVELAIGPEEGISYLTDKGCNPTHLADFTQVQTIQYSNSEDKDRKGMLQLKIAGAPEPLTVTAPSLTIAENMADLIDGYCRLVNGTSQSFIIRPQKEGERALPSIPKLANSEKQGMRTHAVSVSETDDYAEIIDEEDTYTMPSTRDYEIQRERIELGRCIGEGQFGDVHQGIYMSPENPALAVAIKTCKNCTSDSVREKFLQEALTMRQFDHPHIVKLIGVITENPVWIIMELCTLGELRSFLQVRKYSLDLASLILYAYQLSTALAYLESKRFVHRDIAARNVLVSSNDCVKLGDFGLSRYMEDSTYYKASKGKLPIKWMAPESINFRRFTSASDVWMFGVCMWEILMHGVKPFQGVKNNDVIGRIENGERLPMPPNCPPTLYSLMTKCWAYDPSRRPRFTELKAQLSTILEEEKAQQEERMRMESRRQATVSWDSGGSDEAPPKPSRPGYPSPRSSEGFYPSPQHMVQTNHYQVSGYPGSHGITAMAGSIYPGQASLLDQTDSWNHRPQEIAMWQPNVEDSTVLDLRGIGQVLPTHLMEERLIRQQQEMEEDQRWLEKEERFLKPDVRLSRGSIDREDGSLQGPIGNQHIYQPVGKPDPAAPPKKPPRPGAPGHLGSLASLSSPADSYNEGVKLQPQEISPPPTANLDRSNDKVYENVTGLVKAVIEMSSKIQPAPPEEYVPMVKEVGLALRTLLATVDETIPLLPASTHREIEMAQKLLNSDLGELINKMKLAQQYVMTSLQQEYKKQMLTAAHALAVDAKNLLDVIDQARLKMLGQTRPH
# T2 sequence (Q02763 776-1124): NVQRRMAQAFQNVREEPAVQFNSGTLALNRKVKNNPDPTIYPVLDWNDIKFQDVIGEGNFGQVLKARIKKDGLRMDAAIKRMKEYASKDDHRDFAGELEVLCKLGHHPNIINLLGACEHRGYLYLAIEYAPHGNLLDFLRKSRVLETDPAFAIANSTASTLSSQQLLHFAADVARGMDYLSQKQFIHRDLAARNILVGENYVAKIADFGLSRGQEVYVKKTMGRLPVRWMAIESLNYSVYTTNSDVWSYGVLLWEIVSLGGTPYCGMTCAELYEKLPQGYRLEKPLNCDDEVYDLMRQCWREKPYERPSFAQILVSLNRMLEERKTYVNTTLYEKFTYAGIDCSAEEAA
# T1 sequence (P35968 786-1356 limits assumed): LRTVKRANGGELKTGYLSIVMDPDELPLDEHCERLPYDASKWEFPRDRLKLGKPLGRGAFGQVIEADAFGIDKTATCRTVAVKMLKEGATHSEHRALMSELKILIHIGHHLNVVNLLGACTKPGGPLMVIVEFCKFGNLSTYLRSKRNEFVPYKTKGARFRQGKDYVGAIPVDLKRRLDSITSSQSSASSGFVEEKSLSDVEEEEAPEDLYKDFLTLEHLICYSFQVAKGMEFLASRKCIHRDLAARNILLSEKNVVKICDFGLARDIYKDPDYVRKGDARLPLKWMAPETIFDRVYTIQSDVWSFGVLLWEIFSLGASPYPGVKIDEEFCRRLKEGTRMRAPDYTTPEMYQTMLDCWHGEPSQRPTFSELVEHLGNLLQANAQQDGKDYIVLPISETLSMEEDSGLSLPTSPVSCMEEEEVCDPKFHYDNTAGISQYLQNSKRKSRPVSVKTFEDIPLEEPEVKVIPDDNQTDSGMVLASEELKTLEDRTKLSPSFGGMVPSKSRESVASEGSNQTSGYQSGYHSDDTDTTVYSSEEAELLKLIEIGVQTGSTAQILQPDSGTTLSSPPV
Compound,melting point,IC50 (human KDR enzyme),IC50 (human Tie2),IC50 (FAK)
Cc1ccc(F)c(NC(=O)Nc2ccc(-c3c(C(N)=O)[nH]c4ccccc34)cc2)c1 [Example 16],220 °C,–,–,–
"CN(C)CC(=O)Nc1cccc2c(-c3ccc(NC(=O)Nc4cc(C(F)(F)F)ccc4F)cc3)c(C(N)=O)[nH]c12 [Example 32, 7-(2-Dimethylaminoacetylamino)-3-{4-[3-(2-fluoro-5-trifluoromethylphenyl)ureido]phenyl}-1H-indole-2-carboxamide]",–,144 nM,28 nM,–
"NC(=O)c1[nH]c2ccc[n+]([O-])c2c1-c1ccc(NC(=O)Nc2cc(C(F)(F)F)ccc2F)cc1 [Example 21, 3-{4-[3-(2-Fluoro-5-trifluoromethylphenyl)-ureido]phenyl}-4-oxy-1H-pyrrolo[3,2-b]pyridine-2-carboxamide]",–,195 nM,32 nM,–
"CC(C)c1ccc(NC(=O)Nc2ccc(-c3c(C(N)=O)[nH]c4ccccc34)cc2)cc1 [Example 53, 3-{4-[3-(4-Isopropyl-phenyl)ureido]phenyl}-1H-indole-2-carboxamide]",–,153 nM,151 nM,–
"NC(=O)c1[nH]c2ccccc2c1-c1ccc(NC(=O)Nc2ccc(OC(F)(F)F)cc2)cc1 [Example 11, 3-{4-[3-(4-Trifluoromethoxyphenyl)ureido]-phenyl}-1H-indole-2-carboxamide]",162 to 164 °C,153 nM,105 nM,–
"NC(=O)c1[nH]c2ccccc2c1-c1ccc(NS(=O)(=O)c2cccc(Cl)c2Cl)cc1 [Example 14, 3-[4-(2,3-Dichlorobenzenesulfonylamino)-phenyl]-1H-indole-2-carboxamide]",> 260 °C,–,–,–
"COCc1ccc(C(F)(F)F)cc1NC(=O)Nc1ccc(-c2c(C(N)=O)[nH]c3ccccc23)cc1 [Example 20, 3-{4-[3-(2-Methoxymethyl-5-trifluoromethylphenyl)ureido]phenyl}-1H-indole-2-carboxamide]",–,234 nM,59 nM,–
"NC(=O)c1[nH]c2c(NCCO)cccc2c1-c1ccc(NC(=O)Nc2cc(C(F)(F)F)ccc2F)cc1 [Example 31, 3-{4-[3-(2-Fluoro-5-trifluoromethylphenyl)-ureido]phenyl}-7-(2-hydroxyethylamino)-1H-indole-2-carboxamide]",–,75 nM,6 nM,–
"Cn1c(C(N)=O)c(-c2ccc(NC(=O)Nc3cc(C(F)(F)F)ccc3F)cc2)c2ccccc21 [Example 8, 3-{4-[3-(2-Fluoro-5-trifluoromethylphenyl)-ureido]phenyl}-1-methyl-1H-indole-2-carboxamide]",> 260 °C,260 nM,27 nM,–
"COCCOc1ccc2c(-c3ccc(NC(=O)Nc4cc(C(F)(F)F)ccc4F)cc3)c(C(N)=O)[nH]c2c1 [Example 23, 3-{4-[3-(2-Fluoro-5-trifluoromethylphenyl)-ureido]phenyl}-6-(2-methoxyethoxy)-1H-indole-2-carboxamide]",–,90 nM,7 nM,–
"Cc1cc(C)cc(NC(=O)Nc2ccc(-c3c(C(N)=O)[nH]c4ccccc34)cc2)c1 [Example 6, 3-[4-(3,5-Dimethylphenylureido)phenyl]-1H-indole-2-carboxamide]",168 to 170 °C,47 nM,16 nM,–
"NC(=O)c1[nH]c2ccccc2c1-c1ccc(NC(=O)Nc2cc(C(F)(F)F)ccc2CN2CCCC2)cc1 [Example 19, 3-{4-[3-(2-Pyrrolidin-1-ylmethyl-5-trifluoromethylphenyl)ureido]phenyl}-1H-indole-2-carboxamide]",–,1890 nM,220 nM,–
"NC(=O)c1[nH]c2ccccc2c1-c1ccc(NC(=O)Nc2ccccc2F)cc1 [Example 7, 3-[4-(2-Fluorophenylureido)phenyl]-1H-indole-2-carboxamide]",146 to 148 °C,1750 nM,142 nM,–
"NC(=O)c1[nH]c2ccccc2c1-c1ccc(NC(=O)Nc2ccc(C(F)(F)F)c(Cl)c2)cc1 [Example 9, 3-{4-[3-(3-Chloro-4-trifluoromethylphenyl)-ureido]phenyl}-1H-indole-2-carboxamide]",168 to 170 °C,138 nM,17 nM,–
"NC(=O)c1[nH]c2ccccc2c1-c1ccc(NC(=O)Nc2cccc(C(F)(F)F)c2)cc1 [Example 5, 3-[4-(3-Trifluoromethylphenylureido)phenyl]-1H-indole-2-carboxamide]",156 to 158 °C,50 nM,6 nM,–
"CC(C)(C)c1cc(NC(=O)Nc2ccc(-c3c(C(N)=O)[nH]c4ccccc34)cc2)no1 [Example 10, 3-{4-[3-(5-tert-butylisoxazol-3-yl)ureido]-phenyl}-1H-indole-2-carboxamide]",176 to 178 °C,37 nM,3 nM,303 nM
"NC(=O)c1[nH]c2ccccc2c1-c1ccc(NS(=O)(=O)c2cc(C(F)(F)F)ccc2F)cc1 [Example 13, 3-[4-(2-Fluoro-5-trifluoromethylbenzenesulfonylamino)phenyl]-1H-indole-2-carboxamide]",176 to 178 °C,–,–,–
"Cc1cccc(NC(=O)Nc2ccc(-c3c(C(N)=O)[nH]c4ccccc34)cc2)c1 [Example 4, 3-[4-(3-m-Tolylureido)phenyl]-1H-indole-2-carboxamide]",140 to 142 °C,181 nM,19 nM,–
"NC(=O)c1[nH]c2ccccc2c1-c1ccc(NC(=O)Nc2ccc(OC(F)F)cc2)cc1 [Example 37, 3-{4-[3-(4-Difluoromethoxy-phenyl)ureido]phenyl}-1H-indole-2-carboxamide]",–,199 nM,291 nM,–
"NC(=O)c1[nH]c2ccccc2c1-c1ccc(NC(=O)Nc2ccccc2)cc1 [Example 3, 3-[4-(3-Phenylureido)phenyl]-1H-indole-2-carboxamide]",232 to 234 °C,1520 nM,296 nM,–
"NC(=O)c1[nH]c2cccnc2c1-c1ccc(NC(=O)Nc2cc(C(F)(F)F)ccc2F)cc1 [Example 2, 3-{4-[3-(2-Fluoro-5-trifluoromethylphenyl)-ureido]phenyl}-1H-pyrrolo[3,2-b]pyridine-2-carboxamide]",206 to 208 °C,12 nM,4 nM,–
"COc1ccc(C(F)(F)F)cc1NC(=O)Nc1ccc(-c2c(C(N)=O)[nH]c3ccccc23)cc1 [Example 12, 3-{4-[3-(2-Methoxy-5-trifluoromethylphenyl)ureido]phenyl}-1H-indole-2-carboxamide]",178 to 180 °C,–,–,–
"Cc1ccc(-n2nc(C(C)(C)C)cc2NC(=O)Nc2ccc(-c3c(C(N)=O)[nH]c4ccccc34)cc2)cc1 [Example 15, 3-{4-[3-(5-tert-Butyl-2-p-tolyl-2H-pyrazol-3-yl)ureido]phenyl}-1H-indole-2-carboxamide]",> 260 °C,–,–,–
"NC(=O)c1[nH]c2c(N)cccc2c1-c1ccc(NC(=O)Nc2cc(C(F)(F)F)ccc2F)cc1 [Example 30, 7-Amino-3-{4-[3-(2-fluoro-5-trifluoromethylphenyl)ureido]phenyl}-1H-indole-2-carboxamide]",–,31 nM,7 nM,–
"NC(=O)c1[nH]c2ccccc2c1-c1ccc(NC(=O)Nc2cc(C(F)(F)F)ccc2F)cc1 [Example 1, 3-{4-[3-(2-Fluoro-5-trifluoromethylphenyl)-ureido]phenyl}-1H-indole-2-carboxamide]",240 to 242 °C,35 nM,3 nM,–
